From article PMC5834492, “Antimycobacterial drug discovery using Mycobacteria-infected amoebae identifies anti-infectives and new molecular targets” (Scientific Reports, 2018)
Like-named read-outs stand apart in the source and are kept apart here.

Tests used:
[1] = tested on: M. marinum luxCDABE; type: cell-based, Mycobacterium marinum; conditions: 10 µM
[2] = tested on: Mtb H37Rv; design: method as in Sorrentino et al, 2015; conditions: ref Sorrentino et al, 2015; cited from earlier work
[3] = tested on: M. marinum GFP; type: cell-based, Mycobacterium marinum; conditions: 10 µM; antibiotic assay
[4] = tested on: D. discoideum GFP-ABD; conditions: 10 µM
[5] = tested on: M. marinum in BV2 microglial cells; type: cell-based, Mycobacterium marinum; conditions: for BV2 / M. marinum normalised growth, control=1.00, mean / hit in BV2/M. marinum assay True/False / anti-infective properties in microglial cell (BV2) infection assay: 10 µM
[6] = tested on: M. marinum in A. castellanii; type: cell-based, Mycobacterium marinum; conditions: 10 µM
[7] = tested on: Mtb H37Rv in THP-1; design: method as in Sorrentino et al, 2015; conditions: ref Sorrentino et al, 2015, cited from earlier work; for Extracellular MIC90/ Inracellular MIC90: ratio
[8] = THP1 / Mtb H37Rv infection assay

Row | Compound | M. marinum luxCDABE normalised growth, control = 1.00, mean [1] | M. marinum luxCDABE normalised growth, control=1.00, mean [1] | Extracellular MIC90 [2] [µM] | M. marinum GFP normalised growth, control=1.00, mean [3] | D. discoideum GFP-ABD normalised growth, control=1.00, mean [4] | BV2 / M. marinum normalised growth, control=1.00, mean [5] | hit in BV2/M. marinum assay True/False [5] | A. castellanii / M. marinum normalised growth, control=1.00, mean [6] | Hits A. castellanii/M. marinum assay True/False [6] | Intracelullar MIC90 in THP-1 ([7]; Mtb H37Rv-infected THP1 cells) [µM] | Intracelullar MIC90 in THP-1 [7, 8] [µM] | Extracellular MIC90/ Inracellular MIC90 [7] | IC50 [5] [µM] | D. discoideum GFP-ABD normalised growth, control = 1.00, mean [4] | anti-infective properties in microglial cell (BV2) infection assay [5] | anti-infective properties in A. castellanii infection assay [6]
1 | O=C(NCc1ccc(Oc2ccccc2)cc1)c1c(C(F)(F)F)nc2ccccn12 [GSK1829676A] | 0,00 | 0.00 | 0.2 | 0.0321 | 0.75 | 0.35 | TRUE | 0.56 | FALSE | 0.21 | 0.21 | 0.95 |  |  |  | 
2 | Clc1ccc(CCNc2cc(-c3ccccc3)nc3ncnn23)cc1 [GSK1955236A] |  | 0.00 | 1.5 | 0.66 | 0.93 | 0.80 |  | 1.32 |  |  | 1.85 | 0.81 | 5.69 |  |  | 
3 | COc1ccccc1OCCCCn1c(C2CC2)nc2ccccc21 [GSK994258A] |  | 0.00 | 3.4 | 0.10 | 0.31 | 0.59 |  | 1.03 |  |  | 5.55 | 0.61 | 8.73 |  |  | 
4 | c1csc(Cc2nn3c(-c4[nH]nc5c4CCC5)nnc3s2)c1 [GSK810037A] |  | 0.11 | 2.4 | 0.73 | 0.76 | 0.81 |  | 1.03 |  |  | 1.85 | 1.3 | 4.8 |  |  | 
5 | CCN(Cc1ccc2c(c1)OCO2)C(=O)CSc1nc(NC)c2ccccc2n1 [GSK1859936A] |  | 0.07 | 2.8 | 0.54 | 1.00 | 0.63 |  | 1.03 |  |  | 16.65 | 0.17 | 4.14 |  |  | 
6 | Cc1ccc2nc(C(F)(F)F)c(C(=O)NCc3ccc(C)o3)n2c1 [GSK1829728A] | 0,00 | 0.00 | 3.4 | 0.10 | 1.01 | 0.43 | TRUE | 0.78 | FALSE | 1.85 | 1.85 | 1.84 | 4.03 | 1,01 |  | 
7 | O=C(NC(Cc1ccccc1)C(=O)Nc1ccccc1N1CCOCC1)c1cccs1 (stereo not shown) [GSK1055950A] | 0,00 | 0.00 | 7.6 | -0.01 | 1.07 | 0.33 | TRUE | 0.24 | TRUE | 1.85 | 1.85 | 4.11 | 2.84 | 1,07 | strong anti-infective properties | strong anti-infective properties
8 | CCn1c(=O)c(=O)[nH]c2cc(C(=O)Nc3ccccc3Nc3ccc(OC)cc3)ccc21 [GSK1385423A] |  | 1.00 | 8.4 | 0.98 | 0.39 | 0.71 |  | 1.07 |  |  | 0.61 | 13.77 | 2.42 |  |  | 
9 | Br.CC1(C)N=C(N)N=C(N)N1OCCc1ccc2ccccc2c1 [BRL-8088SA] |  | 0.00 | 2.3 | 0.05 | 0.71 | 0.52 |  | 2.26 |  |  | 5.55 | 0.41 | 2.81 |  |  | 
10 | CN1CCN(c2cc(-c3ccncc3)nc(-c3ccccc3)n2)CC1 [GSK275984A] |  | 0.065 | 9 | 0.26 | 0.52 | 0.62 |  | 1.13 |  |  | 5.55 | 1.62 | 5.11 |  |  | 
11 | Nc1cc(OCc2ccccc2)ccc1Nc1ccccc1 [GV187303X] |  | 0.90 | 9.4 | 0.71 | 0.89 | 0.55 |  | 1.05 |  |  | 50 | 0.19 | 5.44 |  |  | 
12 | Cc1cccc(Cn2ccc(NC(=O)c3ccc4c(c3)OCO4)n2)c1 [GSK798463A] |  | 0.00 | 3.7 | 0.0323 | 0.66 | 0.80 |  | 0.57 |  |  | 5.55 | 0.67 | 5.01 |  |  | 
13 | Cc1ccc2nc(C(F)(F)F)c(C(=O)NCc3cc(Cl)cc(Cl)c3)n2c1 [GSK1829736A] | 0,00 | 0.00 | 0.9 | 0.04 | 0.93 | 0.41 | TRUE | 0.60 | FALSE | 0.61 | 0.61 | 1.47 | 2.21 |  |  | 
14 | Cc1nc2ccccn2c1C(=O)NCc1ccc2c(c1)OCO2 [GSK498315A] | 0,00 | 0.00 | 2.9 | 0.0644 | 0.81 | 0.47 | TRUE | 0.56 | FALSE | 1.85 | 1.85 | 1.57 | 5.95 |  |  | 
15 | Br.CCc1ccccc1OCCCON1C(=N)N=C(N)NC1(C)C [BRL-10143SA] |  | 0.00 | 3.2 | 0.04 | 0.53 | 0.55 |  | 2.62 |  |  | 1.85 | 1.73 | 4.19 |  |  | 
16 | CCCCS(=O)(=O)Nc1ccc2cnn(C)c2c1 [GSK3011724A] |  | 0.14 | 1.3 | 0.08 | 0.99 | 0.40 | TRUE | -0.32 | TRUE | 0.21 | 0.21 | 6.19 | 4.44 |  | strong anti-infective properties | strong anti-infective properties
